Tests used:
[1] = target: T1, ACAT1 C196 (P24752) (Homo sapiens, UniProt P24752); experiment: Competitive isoTOP-ABPP, cell lysates; assay type: binding; conditions: 500 μm, in-vitro_ramos_231
T1 sequence (P24752 34-427): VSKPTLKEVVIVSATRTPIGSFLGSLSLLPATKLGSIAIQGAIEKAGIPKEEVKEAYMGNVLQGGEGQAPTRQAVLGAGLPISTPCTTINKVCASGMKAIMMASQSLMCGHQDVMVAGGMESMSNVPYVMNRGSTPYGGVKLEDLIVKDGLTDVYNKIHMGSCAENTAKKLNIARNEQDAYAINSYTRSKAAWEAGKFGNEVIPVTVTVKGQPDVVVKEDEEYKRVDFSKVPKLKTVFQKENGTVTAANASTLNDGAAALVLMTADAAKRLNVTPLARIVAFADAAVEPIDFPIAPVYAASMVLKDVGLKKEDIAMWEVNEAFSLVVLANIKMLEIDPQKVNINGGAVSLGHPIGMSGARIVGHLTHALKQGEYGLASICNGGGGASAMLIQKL

[2] = target: O00541_C272 (Homo sapiens, UniProt O00541); experiment: Competitive isoTOP-ABPP, cell lysates; assay type: binding; conditions: 500 μm, in-vitro_ramos_231
[3] = target: GNB2L1 C182 (P63244) (Homo sapiens, UniProt P63244); experiment: Competitive isoTOP-ABPP, cell lysates; assay type: binding; conditions: 500 μm, in-vitro_ramos_231;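 further: Heavy/light ratio DMSO over fragment-treated so higher means more cysteine engagement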
Protocol: (§1) TEV digests were pressure loaded onto a 250 μm (inner diameter) fused silica capillary column packed with C18 resin (Aqua 5 μm, Phenomenex). The samples were analyzed by multidimensional liquid chromatography tandem mass spectrometry (MudPIT), using an LTQ-Velos Orbitrap mass spectrometer (Thermo Scientific) coupled to an Agilent 1200-series quaternary pump. The peptides were eluted onto a biphasic column with a 5 μm tip (100 μm fused silica, packed with C18 (10 cm) and bulk strong cation exchange resin (3 cm, SCX, Phenomenex,)) in a 5-step MudPIT experiment, using 0%, 30%, 60%, 90%, and 100% salt bumps of 500 mM aqueous ammonium acetate and using a gradient of 5-100% buffer B in buffer A (buffer A: 95% water, 5% acetonitrile, 0.1% formic acid; buffer B: 5% water, 95% acetonitrile, 0.1% formic acid) as has been described in Weerapana et al. Nat Protoc 2:1414-1425 (2007). Data was collected in data-dependent acquisition mode with dynamic exclusion enabled (20 s, repeat of 2). One full MS (MS1) scan (400-1800 m/z) was followed by 30 MS2 scans (ITMS) of the nth most abundant ions.
(§2) The ratios of heavy/light for each unique peptide (DMSO/compound treated; isoTOP-ABPP ratios, R values) were quantified with in-house CIMAGE software, using default parameters (3 ms s per peak and signal to noise threshold 2.5). Site-specific engagement of electrophilic fragments was assessed by blockade of IA-alkyne probe labeling. […] Ratios for unique peptide entries were calculated for each experiment; overlapping peptides with the same modified cysteine (e.g. different charge states, MudPIT chromatographic steps or tryptic termini) were grouped together and the median ratio was reported as the final ratio (R). The peptide ratios reported by CIMAGE were further filtered to ensure the removal or correction of low quality ratios in each individual dataset. The quality filters applied were the following: removal of half tryptic peptides; for ratios with high standard deviations from the median (90% of the median or above) the lowest ratio was taken instead of the median; removal of peptides with R=20 and only a single ms2 event triggered during the elution of the parent ion; manual annotation of all the peptides with ratios of 20, removing any peptides with low-quality elution profiles that remained after the previous curation steps. Proteome reactivity values for individual fragments were computed as the percentage of the total quantified cysteine-containing peptides with R values≥4 (defined as liganded cysteines) for each replicate experiment and the final proteome reactivity value was calculated as the mean for all replicate experiments for each fragment from both MDA-MB-231 and Ramos cellular proteomes.
(§3) Biological replicates of the same compound and cell-line were averaged if the standard deviation was below 60% of the mean; otherwise the lowest value of the ratio set was taken.

[4] = target: MLTK C22 (Q9NYL2) (Homo sapiens, UniProt Q9NYL2); experiment: Competitive isoTOP-ABPP, cell lysates; assay type: binding; conditions: 500 μm, in-vitro_ramos_231
Protocol: as §1, §2, §3

[5] = target: XPO1 C34 (O14980) (Homo sapiens, UniProt O14980); experiment: Competitive isoTOP-ABPP, cell lysates; assay type: binding; conditions: 500 μm, in-vitro_ramos_231
Protocol: as §1, §2, §3

[6] = target: T2, PDIA6 C55 (Q15084) (Homo sapiens, UniProt Q15084); experiment: Competitive isoTOP-ABPP, cell lysates; assay type: binding; conditions: 500 μm, in-vitro_ramos_231
T2 sequence (Q15084 20-440): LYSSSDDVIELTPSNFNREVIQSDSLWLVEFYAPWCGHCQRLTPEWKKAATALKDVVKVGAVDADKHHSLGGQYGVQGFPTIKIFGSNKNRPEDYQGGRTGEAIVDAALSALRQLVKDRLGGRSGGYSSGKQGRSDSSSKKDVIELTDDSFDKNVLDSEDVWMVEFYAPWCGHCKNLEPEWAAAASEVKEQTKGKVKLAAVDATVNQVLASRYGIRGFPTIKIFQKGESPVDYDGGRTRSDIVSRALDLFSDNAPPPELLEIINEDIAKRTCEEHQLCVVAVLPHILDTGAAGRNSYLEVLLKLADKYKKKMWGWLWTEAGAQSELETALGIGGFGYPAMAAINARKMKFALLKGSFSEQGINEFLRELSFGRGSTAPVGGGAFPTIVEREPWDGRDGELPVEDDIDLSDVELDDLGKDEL
Protocol: as §1, §2, §3

[7] = target: PRMT1 C109 (Q99873) (Homo sapiens, UniProt Q99873); experiment: Competitive isoTOP-ABPP, cell lysates; assay type: binding; conditions: 500 μm, in-vitro_ramos_231;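 further: Heavy/light ratio DMSO over fragment-treated so higher means more cysteine engagement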
Protocol: as §1, §2, §3

[8] = target: GSTP1 C48 (P09211) (Homo sapiens, UniProt P09211); experiment: Competitive isoTOP-ABPP, cell lysates; assay type: binding; conditions: 500 μm, in-vitro_ramos_231;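 further: Heavy/light ratio DMSO over fragment-treated so higher means more cysteine engagement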
Protocol: as §1, §2, §3

[9] = target: UBE2L3 C86 (P68036) (Homo sapiens, UniProt P68036); experiment: Competitive isoTOP-ABPP, cell lysates; assay type: binding; conditions: 500 μm, in-vitro_ramos_231;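 further: Heavy/light ratio DMSO over fragment-treated so higher means more cysteine engagement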
Protocol: as §1, §2, §3

[10] = target: T3, ACAT1 C119 (P24752) (Homo sapiens, UniProt P24752); experiment: Competitive isoTOP-ABPP, cell lysates; assay type: binding; conditions: 500 μm, in-vitro_ramos_231
T3 sequence (P24752 34-427): T1 sequence (P24752 34-427)

[11] = target: T4, ACAT1 C413 (P24752) (Homo sapiens, UniProt P24752); experiment: Competitive isoTOP-ABPP, cell lysates; assay type: binding; conditions: 500 μm, in-vitro_ramos_231
T4 sequence (P24752 34-427): T1 sequence (P24752 34-427)

[12] = target: T5, ACAT1 C126 (P24752) (Homo sapiens, UniProt P24752); experiment: Competitive isoTOP-ABPP, cell lysates; assay type: binding; conditions: 500 μm, in-vitro_ramos_231
T5 sequence (P24752 34-427): T1 sequence (P24752 34-427)

[13] = target: T6, MLTK (ZAK) C22 (Homo sapiens, UniProt Q9NYL2); experiment: Blockade of ibrutinib-derived probe 59 labeling of MLTK (gel-based ABPP); assay type: binding; conditions: read-out: IC50 for blockade of ibrutinib probe 59 labeling of MLTK; recombinant MLTK in HEK293T lysate
T6 construct: expressed in transfected cells
Protocol: CuAAC was performed with 20 μM rhodamine-azide (50× stock in DMSO), 1 mM tris(2-carboxyethyl)phosphine hydrochloride (TCEP; fresh 50× stock in water, final concentration=1 mM), ligand (17× stock in DMSO:t-butanol 1:4, final concentration=100 μM) and 1 mM CuSO4 (50× stock in water, final concentration=1 mM). […] Quenched reactions were analyzed by SDS-PAGE and visualized by in-gel fluorescence. […] For MLTK, HEK 293T cells stably overexpressing MTLK^2 were treated with the indicated fragment electrophiles for 1 h, followed by labeling with 59 (1 μl, of 125 μM, final concentration=5 μM) for 1 h. These were followed by CuAAC conjugation to rhodamine-azide and evaluation by SDS-PAGE as described above.

[14] = target: T7, MLTK (Homo sapiens, UniProt Q9NYL2); experiment: MLTK in vitro kinase activity assay; assay type: biochemical; conditions: WT-MLTK, 100 μM fragment
T7 construct: expressed in transfected cells
Protocol: (§4) The kinase activity assay protocol was conducted as described in Wang et al. ACS Chemical biology 9:2194-2198 (2014). Kinase assay buffers, myelin basic protein (MBP) substrate and ATP stock solution were purchased from SignalChem. Radio-labeled [γ-^33P] ATP was purchased from PerkinElmer. 250 μL of HEK-293T soluble lysates (8 mg/mL), stably overexpressing WT, C22A or K45M MLTK were labeled for 1 h with 100 μM fragment or DMSO. The samples were then individually immunoprecipitated with 20 μL flag resin slurry per sample and then eluted with 15 μL 3×Flag-peptide. To each sample was added 5 μL of MBP and then 5 μL of [γ-^33P] ATP assay cocktail (250 μM, 167 μCi/mL) was added to initiate the kinase reaction. Each reaction mixture was incubated at ambient temperature for 30 min, and the reactions were terminated by spotting 25 μL of the reaction mixture onto individual precut phosphocellulose P81 paper. The spotted P81 strips were washed with 10 mL of 1% phosphoric acid (3×10 min). MLTK activity was measured by counting the radioactivity on the P81 paper in the presence of scintillation fluid in a scintillation counter. […] Relative activities for WT and C22A were normalized to their respective DMSO treated samples. Experiments were performed in triplicate.

[15] = target: T8, MLTK (Homo sapiens, UniProt Q9NYL2, C22A); experiment: MLTK in vitro kinase activity assay; assay type: biochemical; conditions: C22A-MLTK, 100 μM fragment
T8 construct: expressed in transfected cells
Protocol: as §4

SMILES	isoTOP-ABPP reactivity profile ratio, P24752_C196 [1]	isoTOP-ABPP reactivity profile ratio, O00541_C272 [2]	isoTOP-ABPP reactivity profile ratio, P63244_C182 [3]	isoTOP-ABPP reactivity profile ratio, Q9NYL2_C22 [4]	isoTOP-ABPP reactivity profile ratio, O14980_C34 [5]	isoTOP-ABPP reactivity profile ratio, Q15084_C55 [6]	isoTOP-ABPP reactivity profile ratio, Q99873_C109 [7]	isoTOP-ABPP reactivity profile ratio, P09211_C48 [8]	isoTOP-ABPP reactivity profile ratio, P68036_C86 [9]	isoTOP-ABPP reactivity profile ratio, P24752_C119 [10]	isoTOP-ABPP reactivity profile ratio, P24752_C413 [11]	isoTOP-ABPP reactivity profile ratio, P24752_C126 [12]	IC50 [13]	catalytic activity of MLTK (substrate phosphorylation) [14]	inhibitory effect on C22A-MLTK mutant [15]
CCCN(C(=O)CCl)c1c(N)n(CCC)c(=O)[nH]c1=O [compound 55]	1.0	1.0	1.0	1.2	0.9	0.9	1.0	1.4	1.0	0.9	1.0	0.9	–	–	–
O=C(CCl)N1N=C(c2ccco2)CC1c1cc2ccccc2o1 (stereo not drawn) [compound 60]	–	–	–	–	–	–	–	–	–	–	–	–	2600 nM	blocked the catalytic activity	not observed
